Reference: PMC7411887, “New Paracyclophanylthiazoles with Anti-Leukemia Activity: Design, Synthesis, Molecular Docking, and Mechanistic Studies” (Molecules, 2020)

Legend:
[1] = system: 786-0; assay: NCI single-dose screen (SRB); format: cell-based; settings: Homo sapiens; Renal Cancer 786-0; 10^−5 M; read-out: Growth inhibition percentage
Description: (§1) The methodology of the NCI anticancer screening was described in detail elsewhere (http://www.dtp.nci.nih.gov). […] Tested compounds were added to the culture at a single concentration (10^−5 M) and the cultures were incubated for 48 h. End-point determinations were made with a protein binding dye, SRB. Results for each tested compound were reported as the percentage growth of the treated cells when compared to the untreated control cells. The percentage growth was evaluated spectrophotometrically versus controls not treated with test agents. All experiments were repeated three times (Table 1).
(§2) Briefly, the protocol was performed on 60 human tumor cell lines derived from different nine neoplastic diseases. […] If the results obtained met selection criteria, then the compound was tested again on all 60 cell lines in 5× 10-fold dilutions with the top dose being 10^−4 M or 150 μg/mL. Detailed methods are described in the Supplementary Materials related to this article.
(§3) on their site (http://www.dtp.nci.nih.gov). But briefly, the protocol performed at sixty human
(§4) National Cancer Institute, Bethesda, USA. If the results obtained meet selection criteria, then the
(§5) 10-4 molar or 150 μg/mL. […]

[2] = system: ACHN; assay: NCI single-dose screen (SRB); format: cell-based; settings: Homo sapiens; Renal Cancer ACHN; 10^−5 M; read-out: Growth inhibition percentage
Description: as §1, §2, §3, §4, §5

[3] = system: CCRF-CEM; assay: NCI single-dose screen (SRB); format: cell-based; settings: Homo sapiens; Leukemia CCRF-CEM; 10^−5 M; read-out: Growth inhibition percentage
Description: as §1, §2, §3, §4, §5

[4] = system: COLO 205; assay: NCI single-dose screen (SRB); format: cell-based; settings: Homo sapiens; Colon Cancer COLO 205; 10^−5 M; read-out: Growth inhibition percentage
Description: as §1, §2, §3, §4, §5

[5] = system: DU-145; assay: NCI single-dose screen (SRB); format: cell-based; settings: Homo sapiens; Prostate Cancer DU-145; 10^−5 M; read-out: Growth inhibition percentage
Description: as §1, §2, §3, §4, §5

[6] = system: HCT-116; assay: NCI single-dose screen (SRB); format: cell-based; settings: Homo sapiens; Colon Cancer HCT-116; 10^−5 M; read-out: Growth inhibition percentage
Description: as §1, §2, §3, §4, §5

[7] = system: HOP-92; assay: NCI single-dose screen (SRB); format: cell-based; settings: Homo sapiens; Non-Small-Cell Lung Cancer HOP-92; 10^−5 M; read-out: Growth inhibition percentage
Description: as §1, §2, §3, §4, §5

[8] = system: HS 578T; assay: NCI single-dose screen (SRB); format: cell-based; settings: Homo sapiens; Breast Cancer HS 578T; 10^−5 M; read-out: Growth inhibition percentage
Description: as §1, §2, §3, §4, §5

[9] = system: HT29; assay: NCI single-dose screen (SRB); format: cell-based; settings: Homo sapiens, HT-29; Colon Cancer HT29; 10^−5 M; read-out: Growth inhibition percentage
Description: as §1, §2, §3, §4, §5

[10] = system: IGROV1; assay: NCI single-dose screen (SRB); format: cell-based; settings: Homo sapiens, IGROV-1; Ovarian Cancer IGROV1; 10^−5 M; read-out: Growth inhibition percentage
Description: as §1, §2, §3, §4, §5

[11] = system: K-562; assay: NCI single-dose screen (SRB); format: cell-based; settings: Homo sapiens, K562; Leukemia K-562; 10^−5 M; read-out: Growth inhibition percentage
Description: as §1, §2, §3, §4, §5

[12] = system: M14; assay: NCI single-dose screen (SRB); format: cell-based; settings: Homo sapiens; Melanoma M14; 10^−5 M; read-out: Growth inhibition percentage
Description: as §1, §2, §3, §4, §5

[13] = system: MCF7; assay: NCI single-dose screen (SRB); format: cell-based; settings: Homo sapiens; Breast Cancer MCF7; 10^−5 M; read-out: Growth inhibition percentage
Description: as §1, §2, §3, §4, §5

[14] = system: MOLT-4; assay: NCI single-dose screen (SRB); format: cell-based; settings: Homo sapiens; Leukemia MOLT-4; 10^−5 M; read-out: Growth inhibition percentage
Description: as §1, §2, §3, §4, §5

[15] = system: NCI-H23; assay: NCI single-dose screen (SRB); format: cell-based; settings: Homo sapiens; Non-Small-Cell Lung Cancer NCI-H23; 10^−5 M; read-out: Growth inhibition percentage
Description: as §1, §2, §3, §4, §5

[16] = system: NCI/ADR-RES; assay: NCI single-dose screen (SRB); format: cell-based; settings: Homo sapiens; Ovarian Cancer NCI/ADR-RES; 10^−5 M; read-out: Growth inhibition percentage
Description: as §1, §2, §3, §4, §5

[17] = system: OVCAR-4; assay: NCI single-dose screen (SRB); format: cell-based; settings: Homo sapiens; Ovarian Cancer OVCAR-4; 10^−5 M; read-out: Growth inhibition percentage
Description: as §1, §2, §3, §4, §5

[18] = system: PC-3; assay: NCI single-dose screen (SRB); format: cell-based; settings: Homo sapiens; Prostate Cancer PC-3; 10^−5 M; read-out: Growth inhibition percentage
Description: as §1, §2, §3, §4, §5

[19] = system: RPMI-8226; assay: NCI single-dose screen (SRB); format: cell-based; settings: Homo sapiens; Leukemia RPMI-8226; 10^−5 M; read-out: Growth inhibition percentage
Description: as §1, §2, §3, §4, §5

[20] = system: SF-268; assay: NCI single-dose screen (SRB); format: cell-based; settings: Homo sapiens; CNS Cancer SF-268; 10^−5 M; read-out: Growth inhibition percentage
Description: as §1, §2, §3, §4, §5

[21] = system: SF-295; assay: NCI single-dose screen (SRB); format: cell-based; settings: Homo sapiens; CNS Cancer SF-295; 10^−5 M; read-out: Growth inhibition percentage
Description: as §1, §2, §3, §4, §5

[22] = system: SK-MEL-5; assay: NCI single-dose screen (SRB); format: cell-based; settings: Homo sapiens; Melanoma SK-MEL-5; 10^−5 M; read-out: Growth inhibition percentage
Description: as §1, §2, §3, §4, §5

[23] = system: SNB-19; assay: NCI single-dose screen (SRB); format: cell-based; settings: Homo sapiens; CNS Cancer SNB-19; 10^−5 M; read-out: Growth inhibition percentage
Description: as §1, §2, §3, §4, §5

[24] = system: SNB-75; assay: NCI single-dose screen (SRB); format: cell-based; settings: Homo sapiens; CNS Cancer SNB-75; 10^−5 M; read-out: Growth inhibition percentage
Description: as §1, §2, §3, §4, §5

[25] = system: SW-620; assay: NCI single-dose screen (SRB); format: cell-based; settings: Homo sapiens; Colon Cancer SW-620; 10^−5 M; read-out: Growth inhibition percentage
Description: as §1, §2, §3, §4, §5

[26] = system: U251; assay: NCI single-dose screen (SRB); format: cell-based; settings: Homo sapiens, U-251; CNS Cancer U251; 10^−5 M; read-out: Growth inhibition percentage
Description: as §1, §2, §3, §4, §5

[27] = system: UACC-257; assay: NCI single-dose screen (SRB); format: cell-based; settings: Homo sapiens; Melanoma UACC-257; 10^−5 M; read-out: Growth inhibition percentage
Description: as §1, §2, §3, §4, §5

[28] = system: UACC-62; assay: NCI single-dose screen (SRB); format: cell-based; settings: Homo sapiens; Melanoma UACC-62; 10^−5 M; read-out: Growth inhibition percentage
Description: as §1, §2, §3, §4, §5

[29] = system: UO-31; assay: NCI single-dose screen (SRB); format: cell-based; settings: Homo sapiens; Renal Cancer UO-31; 10^−5 M; read-out: Growth inhibition percentage
Description: as §1, §2, §3, §4, §5

[30] = system: leukemia RPMI-8226; assay: MTT antiproliferative assay; settings: Homo sapiens, RPMI-8226, read-out: Cytotoxicity IC50 RPMI-8226, MTT; mean ± SD

Compound: CCN1C(=O)C(=CC(=O)OC)SC1=NNC(=O)c1cc2ccc1CCc1ccc(cc1)CC2 [Compound 3e]
- inhibition at 10 µM [1]: 9.45%
- inhibition at 10 µM [2]: 10.4%
- inhibition at 10 µM [3]: 66.1%
- inhibition at 10 µM [4]: 0%
- inhibition at 10 µM [5]: 0%
- inhibition at 10 µM [6]: 50.5%
- inhibition at 10 µM [7]: 18.4%
- inhibition at 10 µM [8]: 1.03%
- inhibition at 10 µM [9]: 54.8%
- inhibition at 10 µM [10]: 11.6%
- inhibition at 10 µM [11]: 45.8%
- inhibition at 10 µM [12]: 12.8%
- inhibition at 10 µM [13]: 56.3%
- inhibition at 10 µM [14]: 62.9%
- inhibition at 10 µM [15]: 0.4%
- inhibition at 10 µM [16]: 13.5%
- inhibition at 10 µM [17]: 10%
- inhibition at 10 µM [18]: 43.3%
- inhibition at 10 µM [19]: 114%
- inhibition at 10 µM [20]: 2.18%
- inhibition at 10 µM [21]: 3.13%
- inhibition at 10 µM [22]: 7.5%
- inhibition at 10 µM [23]: 14.4%
- inhibition at 10 µM [24]: 21.2%
- inhibition at 10 µM [25]: 91.2%
- inhibition at 10 µM [26]: 15.6%
- inhibition at 10 µM [27]: 7.26%
- inhibition at 10 µM [28]: 21.4%
- inhibition at 10 µM [29]: 21%
- IC50 [30]: 3.17 ± 0.0489 µM
